From patent US5932742A, “Arylsulfonylimidazolone derivatives as an antitumor agent” (priority 1996, dated 1999)
Converted amounts (≈) assume the structure as drawn. Counter-ions that a name gives are not always drawn. Like-named read-outs stand apart in the source and are kept apart here.

Key:
[1] = tested on: Colo205 (ATCC CCL 222): human colon adenocarcinoma; experiment: In vitro antitumor activity, MTT assay, Colo205; assay type: cell-based; conditions: for IC50: Homo sapiens; for IC50 (Colo205): Table 1, 48 hrs
Description: (§1) In vitro antitumor activity against human tumor cell lines
(§2) In vitro antitumor activity of the compounds according to the present invention was determined by MTT assay method against the following human tumor cell lines:
Colo205 (ATCC CCL 222): human colon adenocarcinoma
(§3) In this test, the known antineoplastic compounds, Doxorubicin and Sulofenur, were used as the comparative agents.
(§4) Each of the tumor cells was cultured in RPMI 1640 media containing 10% fetal bovine serum, 100 IU/ml penicillin and 100 μg/ml streptomycin, and then periodically subcultured once or twice per week in trypsin-EDTA solution containing 0.05% trypsin and 0.53mM EDTA.4Na. The human tumor cell line thus obtained (10,000cells/100 μl) was plated on 96-well microplate and then cultured for 24 hrs at 37° C. in a 5% CO2 incubator. Test compound was dissolved in DMSO, sterilized with 0.22 μm PVDF filter, and then serially 5-fold diluted from 40 μg/ml to 0.00256μg/ml. 100 μl of the sample solution thus prepared and RPMI 1640 medium only (control group) were added to 96-well microplate containing the human tumor cell, respectively. The final concentration of the test compound was in the range from 20 μg/ml to 0.00128 μg/ml and the concentration of DMSO was below 0.5%. The cells were cultured for 48 hrs at 37° C. in a 5% CO2 incubator. MTT(3-(4,5-Dimethylthiazole-2-yl)-e,5-diphenyltetrazoliumbromide) was dissolved in physiological saline in a concentration of 2 mg/ml and the resulting solution was filtered through 0.22 μm PTFE filter. 25 μl of MTT solution thus prepared was added to each well of 96-well microplate and incubated for additional 4 hrs at 37° C. in a 5% CO2 incubator. Then, the content of microplate was centrifuged at 1000 rpm for 10 min, and supernatant was removed by flicking. The formazan formed from MTT by mitochondrial succinate dehydrogenase was dissolved in 100 μl of DMSO. The absorbance of each well was measured at 540nm by micro ELISA reader and the cytotoxicity was calculated by dividing the absorbance of test group by the absorbance of control group. After the calculated cytotoxicity (%) was plotted, the concentration of 50% tumor growth inhibition concentration (IC50) was estimated by Linear-Regression method.

[2] = tested on: K562 (ATCC CCL 243): human chronic myelogenous leukemia; experiment: In vitro antitumor activity, MTT assay, K562; assay type: cell-based; conditions: Homo sapiens, K562, 48 h
Description: as §1, §2
K562 (ATCC CCL 243): human chronic myelogenous leukemia
as §3, §4

[3] = tested on: A549 (ATCC CCL 185): human lung carcinoma; experiment: In vitro antitumor activity, MTT assay, A549; assay type: cell-based; conditions: for IC50: Homo sapiens, A549, 48 h; for IC50 (A549): Table 1, 48 hrs
Description: as §1, §2
A549 (ATCC CCL 185): human lung carcinoma
as §3, §4

[4] = tested on: KB (ATCC CCL 17): human epidermoid carcinoma; experiment: In vitro antitumor activity, MTT assay, KB; assay type: cell-based; conditions: for IC50: Homo sapiens, read-out: IC50 (KB)
Description: as §1, §2
KB (ATCC CCL 17): human epidermoid carcinoma
as §3, §4

[5] = tested on: SK-OV-3 (ATCC HTB 77): human ovarian adenocarcinoma; experiment: In vitro antitumor activity, MTT assay, SK-OV-3; assay type: cell-based; conditions: for IC50: Homo sapiens; for IC50 (SK-OV-3): Table 1, 48 hrs
Description: as §1, §2
SK-OV-3 (ATCC HTB 77): human ovarian adenocarcinoma
as §3, §4

[6] = tested on: P388 murine leukemia cells; experiment: In vivo antitumor activity against P388 murine leukemia cell; design: species or system BDF1 mouse; conditions: once per 2 days for 10 days, median survival time
Description: In vivo antitumor activity against P388 murine leukemia cell
P388 murine leukemia cells were injected into BDF1 mouse intraperitoneally and grown in the peritoneal cavity. The P388 cells were periodically exudated and reinjected intraperitoneally into mouse for subculture.
The cells were exudated, washed, resuspended in saline (2×10^7 cells/ml), and then injected intraperitoneally again into BDF1 mouse (2×10^6 cells/0.1 ml).
Test compound dissolved in appropriate vehicle was administered intraperitonealy or orally into the mouse which was implanted with P388 murine leukemia tumor cells in the frequency of once per 2 days for 10 days. The vehicle was administered into the mouse of control group. Then, the number of live animals were daily checked to estimate the median survival time (MST).
T/C ratio(%) of each test compound was calculated according to the following formula, and the test results are shown in Table 6.
T/C(%)=(MST of test group.div.MST of control group)×100

[7] = COLO 205, Table 1, 48 hrs, read-out: IC50 (Colo205)
[8] = COLO 205, Table 2, 48 hrs, read-out: IC50 (Colo205)
[9] = COLO 205, Table 3, 48 hrs, read-out: IC50 (Col205)

| SMILES | IC50 [1, 8] [µg/mL] | IC50 ([3]; Table 2) [µg/mL] | IC50 ([4]; Table 2, MTT, 48 hrs) [µg/mL] | IC50 ([5]; SK-OV-3, Table 2, 48 hrs) [µg/mL] | other results |
| --- | --- | --- | --- | --- | --- |
| COc1cccc2c1C(=O)c1c(O)c3c(c(O)c1C2=O)C[C@@](O)(C(=O)CO)C[C@@H]3O[C@H]1C[C@H](N)[C@H](O)[C@H](C)O1 [Doxorubicin, reference compound] | – | – | – | – | IC50 ([1]; COLO 205, 48 h, read-out: IC50 (Col205), Table 3): 6.3 µg/mL (≈ 11.6 µM); IC50 ([1]; COLO 205, 48 h, read-out: IC50 (Colo205), Table 1): 0.973 µg/mL (≈ 1.79 µM); IC50 ([1]; COLO 205, 48 h, read-out: IC50 (Colo205), Table 5): 0.961 µg/mL (≈ 1.77 µM); IC50 ([2]; read-out: IC50 (K562), Table 3): 0.276 µg/mL (≈ 0.508 µM); IC50 ([2]; read-out: IC50 (K562), Table 4): 0.962 µg/mL (≈ 1.77 µM); IC50 ([2]; read-out: IC50 (K562), Table 5): 0.78 µg/mL (≈ 1.44 µM); IC50 ([3]; Table 1): 0.742 µg/mL (≈ 1.37 µM); IC50 ([3]; Table 3): 0.67 µg/mL (≈ 1.23 µM); IC50 ([3]; Table 4): 1.08 µg/mL (≈ 1.99 µM); IC50 ([3]; Table 5): 1.68 µg/mL (≈ 3.09 µM); IC50 ([4]; 48 h): 0.914 µg/mL (≈ 1.68 µM); IC50 ([5]; SK-OV-3, 48 h, Table 1): 2.25 µg/mL (≈ 4.15 µM); IC50 ([5]; SK-OV-3, 48 h, Table 3): 1.31 µg/mL (≈ 2.42 µM); IC50 ([5]; SK-OV-3, 48 h, Table 4): 2.25 µg/mL (≈ 4.15 µM); IC50 ([5]; SK-OV-3, 48 h, Table 5): 1.6 µg/mL (≈ 2.94 µM) |
| CC1Cc2cc(S(=O)(=O)n3cc(-c4ccccc4)[nH]c3=O)ccc2N1C(=O)c1ccc(N)cc1 (centres unmarked) [Example 12, 4-phenyl-1-[N-(4-aminobenzoyl)-2-methylindoline-5-sulfonyl]-2-imidazolone.HCl] | – | – | – | – | IC50 [1, 7]: 0.861 µg/mL; IC50 ([3]; Table 1): 0.321 µg/mL; IC50 ([4]; Table 1, MTT, 48 hrs): 0.072 µg/mL; IC50 ([5]; SK-OV-3, Table 1, 48 hrs): 0.509 µg/mL; T/C rate (%) ([6]; 65 mg/kg p.o.): 115.4% |
| O=C(c1cccnc1)N1CCc2cc(S(=O)(=O)n3cc(-c4ccccc4)[nH]c3=O)ccc21 [Example 15, 4-phenyl-1-(N-nicotinylindoline-5-sulfonyl)-2-imidazolone] | – | – | – | – | IC50 [1, 7]: 0.382 µg/mL (≈ 0.856 µM); IC50 ([3]; Table 1): 0.112 µg/mL (≈ 0.251 µM); IC50 ([4]; Table 1, MTT, 48 hrs): 0.015 µg/mL (≈ 0.0336 µM); IC50 ([5]; SK-OV-3, Table 1, 48 hrs): 0.446 µg/mL (≈ 0.999 µM) |
| O=C(c1ccco1)N1CCc2cc(S(=O)(=O)n3cc(-c4ccccc4)[nH]c3=O)ccc21 [Example 16, 4-phenyl-1-(N-furanoylindoline-5-sulfonyl)-2-imidazolone] | – | – | – | – | IC50 (Colo205) [1]: 0.460 µg/mL (≈ 1.06 µM); IC50 (A549) [3]: 0.065 µg/mL (≈ 0.149 µM); IC50 (KB) ([4]; Table 1, MTT, 48 hrs): 0.011 µg/mL (≈ 0.0253 µM); IC50 (SK-OV-3) [5]: 2.074 µg/mL (≈ 4.76 µM) |
| O=C(c1cccs1)N1CCc2cc(S(=O)(=O)n3cc(-c4ccccc4)[nH]c3=O)ccc21 [Example 17, 4-phenyl-1-(N-thiophenoylindoline-5-sulfonyl)-2-imidazolone] | – | – | – | – | IC50 (Colo205) [1]: 0.386 µg/mL (≈ 0.855 µM); IC50 (A549) [3]: 0.046 µg/mL (≈ 0.102 µM); IC50 (KB) ([4]; Table 1, MTT, 48 hrs): 0.008 µg/mL (≈ 0.0177 µM); IC50 (SK-OV-3) [5]: 0.729 µg/mL (≈ 1.61 µM) |
| O=C(c1ccc(Cl)cc1)N1CCc2cc(S(=O)(=O)n3cc(-c4ccccc4)[nH]c3=O)ccc21 [Example 18, 4-phenyl-1-[N-(4-chlorobenzoyl)indoline-5-sulfonyl]-2-imidazolone] | 2.05 (≈ 4.27 µM) | 0.607 (≈ 1.26 µM) | 0.13 (≈ 0.271 µM) | > 20 | – |
| O=C(CCl)Nc1ccc(C(=O)N2CCc3cc(S(=O)(=O)n4cc(-c5ccccc5)[nH]c4=O)ccc32)cc1 [Example 19, 4-phenyl-1-[N-(4-chloroacetylaminobenzoyl)indoline-5-sulfonyl]-2-imidazolone] | 0.58 (≈ 1.08 µM) | 0.438 (≈ 0.816 µM) | 0.046 (≈ 0.0857 µM) | 0.202 (≈ 0.376 µM) | – |
| CC1Cc2cc(S(=O)(=O)n3cc(-c4ccccc4)[nH]c3=O)ccc2N1C(=O)c1ccc(NC(=O)CCl)cc1 (centres unmarked) [Example 20, 4-phenyl-1-[N-(4-chloroacetylaminobenzoyl)-2-methylindoline-5-sulfonyl]-2-imidazolone] | 0.91 (≈ 1.65 µM) | 0.509 (≈ 0.924 µM) | 0.198 (≈ 0.359 µM) | 0.598 (≈ 1.09 µM) | – |
| CC1Cc2cc(S(=O)(=O)n3cc(-c4ccccc4)[nH]c3=O)ccc2N1C(=O)CCl (centres unmarked) [Example 21, 4-phenyl-1-(N-chloroacetyl-2-methylindoline-5-sulfonyl)-2-imidazolone] | 0.834 (≈ 1.93 µM) | 1.13 (≈ 2.61 µM) | 1.53 (≈ 3.54 µM) | 4.71 (≈ 10.9 µM) | – |
| CNCC(=O)N1c2ccc(S(=O)(=O)n3cc(-c4ccccc4)[nH]c3=O)cc2CC1C (centres unmarked) [Example 22, 4-phenyl-1-(N-methylaminoacetyl-2-methylindoline-5-sulfonyl)-2-imidazolone.HCl] | 3.8 | 3.24 | 0.688 | 3.08 | – |
| CC(C)NCC(=O)N1c2ccc(S(=O)(=O)n3cc(-c4ccccc4)[nH]c3=O)cc2CC1C (centres unmarked) [Example 23, 4-phenyl-1-(N-isopropylaminoacetyl-2-methylindoline-5-sulfonyl)-2-imidazolone.HCl] | 3.45 | 1.14 | 0.429 | 4.03 | – |
| CC(C)NCC(=O)N1CCc2cc(S(=O)(=O)n3cc(-c4ccccc4)[nH]c3=O)ccc21 [Example 24, 4-phenyl-1-(N-isopropylaminoacetylindoline-5-sulfonyl)-2-imidazolone.HCl] | 3.35 | 3.48 | 0.879 | 8.77 | – |
| CC(C)CNCC(=O)N1c2ccc(S(=O)(=O)n3cc(-c4ccccc4)[nH]c3=O)cc2CC1C (centres unmarked) [Example 25, 4-phenyl-1-(N-isobutylaminoacetyl-2-methylindoline-5-sulfonyl)-2-imidazolone.HCl] | 3.07 | 3.23 | 0.246 | 1.4 | – |
| CC(C)CNCC(=O)N1CCc2cc(S(=O)(=O)n3cc(-c4ccccc4)[nH]c3=O)ccc21 [Example 26, 4-phenyl-1-(N-isobutylaminoacetylindoline-5-sulfonyl)-2-imidazolone.HCl] | 9.09 | 5.47 | 1.99 | 10.1 | – |
| CC1Cc2cc(S(=O)(=O)n3cc(-c4ccccc4)[nH]c3=O)ccc2N1C(=O)CNC(C)(C)C (centres unmarked) [Example 27, 4-phenyl-1-(N-t-butylaminoacetyl-2-methylindoline-5-sulfonyl)-2-imidazolone.HCl] | 5.68 | 1.45 | 0.317 | 2.44 | – |
| C=CCNCC(=O)N1c2ccc(S(=O)(=O)n3cc(-c4ccccc4)[nH]c3=O)cc2CC1C (centres unmarked) [Example 28, 4-phenyl-1-(N-allylaminoacetyl-2-methylindoline-5-sulfonyl)-2-imidazolone.HCl] | 1.05 | 0.604 | 1.12 | 1.52 | – |
| CCNC(=O)N1CCc2cc(S(=O)(=O)N3CC(c4ccccc4)NC3=O)ccc21 (centres unmarked) [Example 29, 4-phenyl-1-(N-ethylcarbamoylindoline-5-sulfonyl)4,5-dihydro-2-imidazolone] | – | – | – | – | IC50 [1, 9]: 1 µg/mL (≈ 2.42 µM); IC50 ([2]; Table 3, read-out: IC50 (K562)): 1 µg/mL (≈ 2.42 µM); IC50 ([3]; Table 3): 0.318 µg/mL (≈ 0.767 µM); IC50 ([5]; SK-OV-3, Table 3, 48 hrs): 1.95 µg/mL (≈ 4.7 µM); T/C rate (%) ([6]; 6.25 mg/kg i.p.): 113.6% |
| O=C(Nc1ccccc1)N1CCc2cc(S(=O)(=O)N3CC(c4ccccc4)NC3=O)ccc21 (centres unmarked) [Example 34, 4-phenyl-1-(N-phenylcarbamoylindoline-5-sulfonyl)-4,5-dihydro-2-imidazolone] | – | – | – | – | IC50 [1, 9]: 1.26 µg/mL (≈ 2.72 µM); IC50 ([2]; Table 3, read-out: IC50 (K562)): < 0.0064 µg/mL; IC50 ([3]; Table 3): 0.178 µg/mL (≈ 0.385 µM); IC50 ([5]; SK-OV-3, Table 3, 48 hrs): 0.16 µg/mL (≈ 0.346 µM); T/C rate (%) ([6]; 6.25 mg/kg i.p.): 140.9% |
